From US20070004639A1, “Methods and compositions for treating Parkinson's disease” (BodyBio, Inc., priority 2005, published 2007)
Read-outs that look alike come from different tables or passages of the source.

Columns and labels:
Parkinson's Disease [1] = conditions: cited from earlier work
Parkinson's Disease [2] = conditions: after five years; cited from earlier work
[3] = cited from earlier work
Parkinson's Disease [4] = assay: Parkinson's patients case studies (oral nutrients plus IV infusions)
[5] = system: mouse model of Bulbar ALS; conditions: oral administration; cited from earlier work
Parkinson's Disease [6] = conditions: 800 mild, early Parkinson's Disease patients; cited from earlier work
Parkinson's Disease [7] = conditions: human, in vivo; cited from earlier work
Parkinson's Disease [8] = conditions: in vivo; cited from earlier work
[9] = in vivo; cited from earlier work
Parkinson's Disease [10] = conditions: in vivo; cited from earlier work; remark: listed apart in the source

For CCCN(CCC)CCc1cccc2c1CC(=O)N2 [ropinerole], the effectiveness in comparison (Parkinson's Disease [1]; early stage Parkinson's Disease, versus levodopa) is listed as “as effective as levodopa”, the effectiveness in comparison (Parkinson's Disease [1]; versus bromocriptine (Parlodel)) is listed as “more effective than bromocriptine” and the “patients who developed dyskinesia” value (Parkinson's Disease [2]) is listed as 20%. For the same molecule, the “severe form among those who developed dyskinesia” value (Parkinson's Disease [2]) was 8%.
For Phosphatidylcholine [PC], the oral absorption ([3]; taken orally with meals) is given as “up to 90 % per 24 hrs” and the “time over which blood levels peak” value ([3]; taken orally) is given as 8 to 12 h.
With N[C@@H](CCC(=O)N[C@@H](CS)C(=O)NCC(=O)O)C(=O)O [Glutathione, N—(N-L-gamma-glutamyl-L-cysteinyl)glycine] the tremor (Parkinson's Disease [4]; Case Study 1, IV Glutathione push once weekly, after 6 months) was “slightly improved”.
In the case of CCCC(=O)[O-].[Na+] [sodium butyrate], the neurological phenotypes [5] is listed as “successfully ameliorated”.
With N[C@@H](Cc1ccc(O)c(O)c1)C(=O)O [levodopa, Levodopa] the “tolerance of drug by patient” value (Parkinson's Disease [4]; Case Study 6, before protocol) was “intolerant”.
In the case of C#CCN(C)[C@H](C)Cc1ccccc1 [Selegiline], the “delay of the progression of motor symptoms” value (Parkinson's Disease [6]) is listed as “about nine”.
For Cc1ccc(C(=O)c2cc(O)c(O)c([N+](=O)[O-])c2)cc1 [tolcapone], the “deaths from liver failure” value (Parkinson's Disease [7]) is listed as “three”.
In the case of botulinum toxin, the effect on tremors (Parkinson's Disease [8]) is listed as “without any substantial reduction in tremors”.
In the case of carbidopa/levodopa, the “half-life compared with dopamine agonists” value [9] is listed as “shorter half-life”.
For CCCN[C@H]1CCc2nc(N)sc2C1 [pramipexole], the “patients completely free from motor complications” value (Parkinson's Disease [10]) is listed as 72%, the “patients in whom dyskinesias developed” value (Parkinson's Disease [10]) is listed as 10% and the “patients who developed motor complications” value (Parkinson's Disease [10]) is listed as 28%.
